The values that follow come from article PMC8639918, “Mechanism of phosphate sensing and signaling revealed by rice SPX1-PHR2 complex structure” (Nature Communications, 2021).

Where a chain is given by its changes, count along the chain named.

What all share (assay type): binding
For experiment [1], the target named is T1, SPX1^1–259▵N17 (Oryza sativa, UniProt Q69XJ0).
T1 construct: SPX1 1-259 without the N-terminal helix alpha1 (deltaN17, residues 1-17 deleted), N-terminal 10xHis-MsyB tag cut with TEV, E. coli BL21(DE3)
T1 sequence (Q69XJ0 18-259): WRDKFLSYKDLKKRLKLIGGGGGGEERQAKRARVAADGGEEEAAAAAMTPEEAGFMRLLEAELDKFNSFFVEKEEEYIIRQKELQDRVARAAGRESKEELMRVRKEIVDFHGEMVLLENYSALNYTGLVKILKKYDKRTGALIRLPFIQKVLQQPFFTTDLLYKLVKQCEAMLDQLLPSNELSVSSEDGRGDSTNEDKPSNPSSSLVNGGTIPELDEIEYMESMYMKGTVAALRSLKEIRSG
Briefly: ITC. The conditions noted are these: 25 °C; 20 mM HEPES/NaOH pH 7.5, 200 mM NaCl, 2 mM beta-mercaptoethanol.

Experiment [2] concerns the target T2, SPX1^1–259 (Oryza sativa, UniProt Q69XJ0, Y25F/K29A/K151A).
T2 construct: residues 1-259 (C-terminally truncated), N-terminal 10xHis-MsyB tag cut with TEV, E. coli BL21(DE3), monomer
T2 sequence (Q69XJ0 1-259 Y25F/K29A/K151A): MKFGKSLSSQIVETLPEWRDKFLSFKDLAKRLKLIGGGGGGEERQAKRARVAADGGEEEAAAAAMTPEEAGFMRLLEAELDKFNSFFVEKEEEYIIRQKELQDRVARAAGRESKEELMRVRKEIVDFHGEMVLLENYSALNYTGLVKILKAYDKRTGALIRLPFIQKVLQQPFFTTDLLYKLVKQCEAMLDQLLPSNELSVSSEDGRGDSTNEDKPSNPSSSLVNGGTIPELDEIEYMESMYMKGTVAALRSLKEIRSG
In words: ITC. The conditions noted are these: 25 °C; 20 mM HEPES/NaOH pH 7.5, 200 mM NaCl, 2 mM beta-mercaptoethanol.

Experiment [3] has as its target T3, InsP6-SPX1-PHR2 complex (Oryza sativa, UniProt Q69XJ0).
T3 construct: SPX1 1-198 with T4 lysozyme fused to its C-terminus (crystallisation aid) plus Se-Met PHR2 248-380 (MYB and CC domains), tags cut with TEV, E. coli BL21(DE3), 1:1 heterodimer; with Protein PHOSPHATE STARVATION RESPONSE 2
Briefly: X-ray crystal structure, […] Å. The conditions noted are these: basic groove between SPX1 helices α1, α2 and α4; allosteric.

Experiment [4] has as its target T4, SPX1^1–259 (Oryza sativa, UniProt Q69XJ0).
T4 construct: residues 1-259 (C-terminally truncated), N-terminal 10xHis-MsyB tag cut with TEV, E. coli BL21(DE3), monomer
T4 sequence (Q69XJ0 1-259): T2 sequence (Q69XJ0 1-259 Y25F/K29A/K151A) with F25Y, A29K, A151K
Briefly: ITC. The note with it: 25 °C; 20 mM HEPES/NaOH pH 7.5, 200 mM NaCl, 2 mM beta-mercaptoethanol. The source says:
ITC on SPX1^1–259 | In contrast to the moderate InsP6 binding ability of the wild-type protein

The target in experiment [5] is T5, SPX1^1–259 (Oryza sativa, UniProt Q69XJ0, K147A).
T5 construct: residues 1-259 (C-terminally truncated), N-terminal 10xHis-MsyB tag cut with TEV, E. coli BL21(DE3), monomer
T5 sequence (Q69XJ0 1-259 K147A): T2 sequence (Q69XJ0 1-259 Y25F/K29A/K151A) with F25Y, A29K, K147A, A151K
In words: ITC. From the text: ITC on SPX1^1–259 | SPX1 K147A mutation had little effect on InsP6 binding affinity

Experiment [6] has as its target T4, SPX1^1–259. Briefly: thermal shift assay (SYPRO Orange). The conditions noted are these: 20 mM HEPES/NaOH pH 7.5, 200 mM NaCl; InsP6 0 to 250 μM.

T3 sequence (Q69XJ0 1-198): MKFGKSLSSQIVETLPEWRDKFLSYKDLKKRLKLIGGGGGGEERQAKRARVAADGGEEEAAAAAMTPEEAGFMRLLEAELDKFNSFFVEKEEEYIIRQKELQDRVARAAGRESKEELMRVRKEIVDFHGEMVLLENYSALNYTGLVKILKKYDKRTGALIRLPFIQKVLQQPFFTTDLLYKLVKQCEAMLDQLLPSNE
T3 sequence (Q6Z156 with tags, fused parts or gaps V263M/L278M/L295M/L340M partner): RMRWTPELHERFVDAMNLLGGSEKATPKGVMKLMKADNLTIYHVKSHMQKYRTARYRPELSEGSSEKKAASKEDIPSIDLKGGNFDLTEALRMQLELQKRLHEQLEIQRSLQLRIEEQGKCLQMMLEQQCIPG

Broadly, the Kd is the free concentration of one partner at which half of the binding sites on the other are occupied at equilibrium, for simple one-to-one binding. In the case of `O=P(O)(O)O[C@H]1[C@H](OP(=O)(O)O)[C@@H](OP(=O)(O)O)[C@H](OP(=O)(O)O)[C@@H](OP(=O)(O)O)[C@H]1OP(=O)(O)O` [InsP6], the Kd in experiment [1] was 34.1 ± 1.95 µM; in experiment [2] it was “the SPX1 mutant lost its InsP6-binding activity”; in experiment [4] it was 5.5 ± 0.93 µM; in experiment [5], 5.69 ± 1.46 µM. The “X-ray crystal structure, 2.6 Å” value in experiment [3] is on record as “each captured by an SPX1 molecule via a highly basic surface groove”. In addition, the Tm result in experiment [6] was “InsP6 could increase the melting temperature (Tm) of SPX1 greatly”.
